Measurements: publication PMC6219668 (Oncotarget, 2018)

Experiments:
Pfeiffer = experiment: cells; type: cell-based; conditions: Homo sapiens, DLBCL, dominant CDK6, read-out: IC50, mean ± SD
JeKo-1 = experiment: cells; type: cell-based; conditions: Homo sapiens; JeKo-1, MCL, dominant CDK4; read-out: IC50, mean ± SD
SEM cells = experiment: cells; type: cell-based; conditions: ALL, dominant CDK6, read-out: IC50, mean ± SD
KYSE450 = experiment: cells; type: cell-based; conditions: Homo sapiens, KYSE-450; KYSE450, 72 h
CHP-212 = experiment: cells; type: cell-based; conditions: Homo sapiens, CHP-212, 72 h
HBCx-16 = type: in vivo; conditions: HBCx-16, Breast, HER2High, Rb present; 125 mg/kg bid × 21
HBCx-10 = type: in vivo; conditions: HBCx-10, Breast, TNBC, Rb absent; 125 mg/kg bid × 21
NCI-H2228 = experiment: cells; type: cell-based; conditions: Homo sapiens, NCI-H2228, 72 h
HCOX1290 = type: in vivo; conditions: HCOX1290, Colorectal, Rb present; 250 mg/kg qd
MGH049 = experiment: cells; type: cell-based; conditions: MGH049, 72 h
KELLY = experiment: cells; type: cell-based; conditions: 72 h
WBCs and ANC = experiment: Blood counts in JeKo-1 rat model; type: in vivo; conditions: all treatment groups compared with vehicle
Source text: To further characterize the pharmacokinetic/pharmacodynamic (PK/PD) relationship and simultaneously compare antitumor effects with white blood cell (WBC) counts in host animals, we used the JeKo-1 xenograft model in nude rats. […]. We observed dose-proportional increases in both drug exposure and target inhibition (Supplementary Table 5). […]. This dose-proportional target inhibition correlated with dose-dependent antitumor efficacy in the same JeKo-1 xenograft model.

TE-10 = experiment: cells; type: cell-based; conditions: Homo sapiens, TE-10, 72 h
CDK4 = biological target: T1, CDK4 (Homo sapiens, UniProt P11802); experiment: KINOMEscan binding assay; conditions: Supplementary Table 1A
T1 construct: purchased DiscoveRx (KINOMEscan)
T1 sequence (P11802 whole entry): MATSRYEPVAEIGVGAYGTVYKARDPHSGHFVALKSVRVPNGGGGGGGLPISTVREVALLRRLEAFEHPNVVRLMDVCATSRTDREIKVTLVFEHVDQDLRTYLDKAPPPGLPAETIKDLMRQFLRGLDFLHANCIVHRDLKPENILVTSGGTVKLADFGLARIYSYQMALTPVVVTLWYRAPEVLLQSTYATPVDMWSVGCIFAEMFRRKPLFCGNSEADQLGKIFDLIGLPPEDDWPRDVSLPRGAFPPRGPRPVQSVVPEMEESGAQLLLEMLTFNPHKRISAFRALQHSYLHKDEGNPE

Rb phosphorylation = experiment: animal or person; type: in vivo; conditions: Rattus norvegicus, JeKo-1, read-out: ppRb inhibition, range
NCI-H2030 = experiment: cells; type: cell-based; conditions: Homo sapiens, NCI-H2030, 72 h
A2058 = experiment: cells; type: cell-based; conditions: Homo sapiens, A2058, 72 h
HBCx-2 = type: in vivo; conditions: HBCx-2, Breast, TNBC, Rb absent; 125 mg/kg bid × 21
HBCx-1 = type: in vivo; conditions: HBCx-1, Breast, HER2High, Rb absent; 125 mg/kg bid × 21
MDA-MB-415 = experiment: cells; type: cell-based; conditions: Homo sapiens, MDA-MB-415, 72 h
hs944T = experiment: cells; type: cell-based; conditions: 72 h
TE-14 = experiment: cells; type: cell-based; conditions: TE-14, 72 h
HPAX1199 = type: in vivo; conditions: HPAX1199, Pancreatic, Rb present; 250 mg/kg qd
MCF-7 = experiment: cells; type: cell-based; conditions: Homo sapiens, MCF7; MCF-7, 72 h
SK-MEL-30 [1] = experiment: cells; type: cell-based; conditions: Homo sapiens, SK-MEL-30, 72 h
HBRX1600 = type: in vivo; conditions: HBRX1600, Breast, TNBC, Rb present; 250 mg/kg qd
NB1 = experiment: cells; type: cell-based; conditions: Homo sapiens, NB1, 72 h
WM-115 = experiment: cells; type: cell-based; conditions: Homo sapiens, WM-115, 72 h
SNU-387 = experiment: cells; type: cell-based; conditions: Homo sapiens, SNU-387, 72 h
HPAX1633 = type: in vivo; conditions: HPAX1633, Pancreatic, Rb present; 250 mg/kg qd
SK-MEL-30 [2] = experiment: cells; type: cell-based; conditions: Homo sapiens, SK-MEL-30, 72 h; remark: listed apart in the source
HBCx-6 = type: in vivo; conditions: HBCx-6, Breast, TNBC, Rb present; 125 mg/kg bid × 21
in vivo = conditions: male, rat, po
[3] = type: in vivo
HBCx-12 = type: in vivo; conditions: HBCx-12, Breast, TNBC, Rb present; 125 mg/kg bid × 21
VCAP = experiment: cells; type: cell-based; conditions: Homo sapiens, 72 h
HPAX0991 = type: in vivo; conditions: HPAX0991, Pancreatic, Rb present; 250 mg/kg qd
SK-MEL-2 = experiment: cells; type: cell-based; conditions: Homo sapiens, SK-MEL-2, 72 h

CC(=O)c1c(C)c2cnc(Nc3ccc(N4CCNCC4)cn3)nc2n(C2CCCC2)c1=O [Palbociclib, reference compound]
IC50 (Pfeiffer): 89 ± 32 µM
IC50 (JeKo-1): 72 ± 33 µM
IC50 (SEM cells): 87 ± 28 µM

CN(C)C(=O)c1cc2cnc(Nc3ccc(N4CCNCC4)cn3)nc2n1C1CCCC1 [Ribociclib, 7-cyclopentyl-2-(5-piperazin-1-yl-pyridin-2-ylamino)-7H-pyrrolo[2,3-d]pyrimidine-6-carboxylic acid dimethylamide]
IC50 (KYSE450): > 10 µM
IC50 (CHP-212): 0.28 µM
T/C (HBCx-16): 71
T/C (HBCx-10): 82
IC50 (NCI-H2228): > 10 µM
T/C (HCOX1290): 22
IC50 (MGH049): > 10 µM
IC50 (KELLY): 0.3 µM
absolute neutrophil counts (WBCs and ANC): reduced
total WBC counts (WBCs and ANC): reduced
IC50 (TE-10): > 10 µM
affinity for CDK4, lower than that observed for abemaciclib (CDK4): ~10 fold
inhibition at 75 mg/kg (Rb phosphorylation): 75 to 90%
inhibition at 150 mg/kg (Rb phosphorylation): 97 to 100%
IC50 (NCI-H2030): > 10 µM
IC50 (A2058): > 10 µM
T/C (HBCx-2): 102
T/C (HBCx-1): 80
IC50 (MDA-MB-415): 0.98 µM
IC50 (hs944T): > 10 µM
IC50 (TE-14): > 10 µM
T/C (HPAX1199): 18
IC50 (MCF-7): > 10 µM
IC50 (SK-MEL-30 [1]): 1 µM
T/C (HBRX1600): 28
IC50 (NB1): 0.37 µM
IC50 (WM-115): > 10 µM
IC50 (SNU-387): 2.49 µM
T/C (HPAX1633): 30
IC50 (SK-MEL-30 [2]): > 10 µM
T/C (HBCx-6): 64
Cmax (in vivo; 10 mg/kg): 110 ng/mL
Cmax (in vivo; 75 mg/kg): 1740 ng/mL
Cmax (in vivo; 150 mg/kg): 1680 ng/mL
body weight loss ([3]; 150 mg/kg): only minimal transient body weight loss
tolerability ([3]; all ribociclib doses, no significant body weight loss): well tolerated
T/C (HBCx-12): 33
IC50 (VCAP): > 10 µM
T/C (HPAX0991): 11
IC50 (SK-MEL-2): 4.81 µM
